Assay results reported in BigSolDB 2.1.

CCOC(=O)[C@H](CCc1ccccc1)N[C@@H](C)C(=O)O
solubility (mole fraction)
Conditions | 273.15 K | 278.15 K | 283.15 K | 288.15 K | 293.15 K | 298.15 K | 303.15 K | 308.15 K | 313.15 K | 318.15 K
in acetone | 0.00387 | 0.00426 | 0.00468 | 0.00515 | 0.00568 | 0.00627 | 0.007 | 0.0078 | 0.00868 | 0.0097
in acetonitrile | 0.00012 | 0.000199 | 0.000288 | 0.000427 | 0.000608 | 0.000907 | 0.00129 | 0.00183 | 0.00255 | 0.00349
in ethanol | 0.00273 | 0.00281 | 0.00294 | 0.00312 | 0.00334 | 0.0036 | 0.00396 | 0.00436 | 0.00489 | 0.00545
in ethyl acetate | 0.00898 | 0.0092 | 0.00951 | 0.00991 | 0.0104 | 0.0109 | 0.0115 | 0.0123 | 0.0131 | 0.014
in isopropanol | 0.000921 | 0.00105 | 0.0012 | 0.00141 | 0.00164 | 0.00191 | 0.00221 | 0.00257 | 0.00298 | 0.00346
in n-octanol | 0.00215 | 0.00223 | 0.00233 | 0.00246 | 0.00263 | 0.00284 | 0.0031 | 0.00343 | 0.00378 | 0.0042

CCOC(=O)[C@H](CCc1ccccc1)N[C@@H](C)C(=O)N1CCC[C@H]1C(=O)O.O=C(O)/C=C\C(=O)O
solubility (mole fraction)
Conditions | 273.15 K | 278.15 K | 283.15 K | 288.15 K | 293.15 K | 298.15 K | 303.15 K | 308.15 K | 313.15 K | 318.15 K
in acetone | 0.00118 | 0.00139 | 0.00176 | 0.0021 | 0.00243 | 0.00302 | 0.0038 | 0.00451 | 0.0054 | 0.00651
in acetonitrile | 0.000339 | 0.000452 | 0.000569 | 0.000716 | 0.0009 | 0.00117 | 0.00153 | 0.00204 | 0.00261 | 0.00334
in ethanol | 0.000616 | 0.000761 | 0.000998 | 0.00133 | 0.00177 | 0.00226 | 0.00292 | 0.00366 | 0.00449 | 0.00536
in ethyl acetate | 0.0013 | 0.00171 | 0.00231 | 0.00304 | 0.00379 | 0.00471 | 0.00576 | 0.00689 | 0.00796 | 0.00941
in isopropanol | 0.000144 | 0.000184 | 0.000242 | 0.000327 | 0.000452 | 0.000605 | 0.000809 | 0.00105 | 0.00133 | 0.00176
in n-octanol | 0.000311 | 0.000406 | 0.000509 | 0.000642 | 0.00083 | 0.00105 | 0.00131 | 0.00167 | 0.00206 | 0.00256
